≈ marks a conversion by molar mass, not a printed value. Calls of active or inactive are those of the source. The calls are words filed in the database; no cut-off is given here.
Assays:
Escherichia coli [1] = experiment: Antibacterial activity against Escherichia coli ATCC 9637 at 100 mcg/ml by agar-dilution streak method; assay type: functional, organism-based
Candida albicans [2] = experiment: Antifungal activity against Candida albicans ATCC 10231 at 100 mcg/ml by agar-dilution streak method; assay type: functional, organism-based
Klebsiella pneumoniae [3] = experiment: Antibacterial activity against Klebsiella pneumoniae ATCC 10031 at 100 mcg/ml by agar-dilution streak method; assay type: functional, organism-based
[4] = tested on: Mycolicibacterium smegmatis; experiment: Antibacterial activity against Mycobacterium smegmatis ATCC 607 by agar-dilution streak method; assay type: functional
[5] = tested on: Salmonella enterica subsp. enterica serovar Gallinarum; experiment: Antibacterial activity against Salmonella gallinarum ATCC 9184 at 100 mcg/ml by agar-dilution streak method; assay type: functional, organism-based
Staphylococcus aureus [6] = experiment: Antibacterial activity against Staphylococcus aureus ATCC 13709 by agar-dilution streak method; assay type: functional
[7] = tested on: Mycolicibacterium smegmatis; experiment: Antibacterial activity against Mycobacterium smegmatis ATCC 607 at 100 mcg/ml by agar-dilution streak method; assay type: functional
Candida albicans [8] = experiment: Antifungal activity against Candida albicans ATCC 10231 by agar-dilution streak method; assay type: functional
Escherichia coli [9] = experiment: Antibacterial activity against Escherichia coli ATCC 9637 by agar-dilution streak method; assay type: functional
Staphylococcus aureus [10] = experiment: Antibacterial activity against Staphylococcus aureus ATCC 13709 at 100 mcg/ml by agar-dilution streak method; assay type: functional, organism-based
Klebsiella pneumoniae [11] = experiment: Antibacterial activity against Klebsiella pneumoniae ATCC 10031 by agar-dilution streak method; assay type: functional
[12] = tested on: Salmonella enterica subsp. enterica serovar Gallinarum; experiment: Antibacterial activity against Salmonella gallinarum ATCC 9184 by agar-dilution streak method; assay type: functional

| SMILES | Activity (Escherichia coli [1]) | Activity (Candida albicans [2]) | Activity (Klebsiella pneumoniae [3]) | MIC [4] [µg/mL] | Activity [5] | MIC (Staphylococcus aureus [6]) [µg/mL] | MIC [7] [µg/mL] | Activity [7] | MIC (Candida albicans [8]) [µg/mL] | Activity (Escherichia coli [9]) | Activity (Staphylococcus aureus [10]) | MIC (Escherichia coli [9]) [µg/mL] | MIC (Klebsiella pneumoniae [11]) [µg/mL] | MIC [12] [µg/mL] |
| --- | --- | --- | --- | --- | --- | --- | --- | --- | --- | --- | --- | --- | --- | --- |
| CC1(C)C=Cc2c(ccc([C@@H]3COc4c(ccc5c4C=CC(C)(C)O5)C3)c2O)O1 [HISPAGLABRIDIN B] | inactive | inactive | inactive | 3.12 (≈ 7.99 µM) | inactive | 6.25 (≈ 16 µM) |  |  |  |  |  |  |  |  |
| CC1(C)C=Cc2c(ccc([C@@H]3COc4cc(O)ccc4C3)c2O)O1 [PHASEOLLINISOFLAVAN] | inactive | inactive | inactive |  | inactive | 25 (≈ 77.1 µM) | 12.5 (≈ 38.5 µM) |  |  |  |  |  |  |  |
| COc1c(O)ccc([C@@H]2COc3c(ccc4c3C=CC(C)(C)O4)C2)c1O | inactive | inactive | inactive |  | inactive | 50 (≈ 141 µM) |  | inactive |  |  |  |  |  |  |
| CC1(C)C=Cc2c(ccc3c2OC[C@@H](c2ccc(O)cc2O)C3)O1 [GLABRIDIN] | inactive |  | inactive | 6.25 (≈ 19.3 µM) | inactive | 6.25 (≈ 19.3 µM) |  |  | 25 (≈ 77.1 µM) | inactive | inactive |  |  |  |
| COc1ccc([C@@H]2COc3c(ccc4c3C=CC(C)(C)O4)C2)c(O)c1 | inactive | inactive | inactive | 3.12 (≈ 9.22 µM) | inactive | 6.25 (≈ 18.5 µM) |  |  |  |  |  |  |  |  |
| CC(C)=CCc1c(O)ccc([C@@H]2COc3c(ccc4c3C=CC(C)(C)O4)C2)c1O [HISPAGLABRIDIN A] | inactive | inactive | inactive | 3.12 (≈ 7.95 µM) | inactive | 3.12 (≈ 7.95 µM) |  |  |  |  |  |  |  |  |
| COc1ccc(-c2coc3cc(O)ccc3c2=O)cc1 | inactive | inactive | inactive |  | inactive |  |  | inactive |  |  | inactive |  |  |  |
| CN[C@@H]1[C@H](O[C@H]2[C@H](O[C@H]3[C@H](O)[C@@H](O)[C@H](N=C(N)N)[C@@H](O)[C@@H]3N=C(N)N)O[C@@H](C)[C@]2(O)C=O)O[C@@H](CO)[C@H](O)[C@H]1O.CN[C@@H]1[C@H](O[C@H]2[C@H](O[C@H]3[C@H](O)[C@@H](O)[C@H](N=C(N)N)[C@@H](O)[C@@H]3N=C(N)N)O[C@@H](C)[C@]2(O)C=O)O[C@@H](CO)[C@H](O)[C@H]1O.O=S(=O)(O)O.O=S(=O)(O)O.O=S(=O)(O)O [STREPTOMYCIN SULFATE] |  | inactive |  | 1.25 |  | 5 |  |  |  |  |  | 5 | 2.5 | 50 |
| CC(C)=CCc1cc([C@@H]2CC(=O)c3ccc(O)c(CC=C(C)C)c3O2)ccc1O [GLABROL] | inactive | inactive | inactive | 1.56 (≈ 3.97 µM) | inactive | 1.56 (≈ 3.97 µM) |  |  |  |  |  |  |  |  |
| CC(C)=CCc1cc([C@H]2Oc3c(ccc(O)c3CC=C(C)C)C(=O)[C@@H]2O)ccc1O | inactive | inactive | inactive | 6.25 (≈ 15.3 µM) | inactive | 6.25 (≈ 15.3 µM) |  |  |  |  |  |  |  |  |
| CC1(C)C=Cc2c(O)ccc(C3=Cc4ccc(O)cc4OC3)c2O1 [GLABRENE] | inactive | inactive | inactive | 25 (≈ 77.6 µM) | inactive | 25 (≈ 77.6 µM) |  |  |  |  |  |  |  |  |
